Measured values: patent US7341717B2, “Therapeutic targets for treatment of HCV infections, methods of treating HCV infections and compounds useful therefor” (priority 2001, dated 2008)

Tests used:
GI-GPx [1] = assay: GI-GPx expression in mock transfected HuH7 cells; format: cell-based, human
Procedure: (§1) The HuH7 pcDNA3 control cells and the replicon cell lines 5-15, 11-7 and 9-13 were plated as described in legend to FIG. 1 and after three days (Day 0) treated for two (Day 2) and four days (Day 4) with 1000U/ml interferon α (IFN-α). Then, cultures were harvested and RNA was prepared. 10 μg of total RNA were used for Northern blot analysis. For detection of GI-GPx (A) Probe 1 was used (see FIG. 1). The membranes were stripped and successively hybridized with probes for PKR (B) and neomycin phosphotransferase (Neo)(C).
(§2) Replicon cells were incubated with alpha interferon (IFN-α) for two and four days. Northern blot analyses were performed with 10 μg total RNA. […] Interferon had no effect on the expression of GI-GPx in mock transfected HuH7 cells (cf FIG. 4).

[2] = test system: HCV replicon (subgenomic HCV RNA, NS5a); assay: HCV replicon RNA (Northern blot) and NS5a protein (Western blot) levels in HuH7 replicon cell lines; format: cell-based, Hepatitis C virus; details: for effect like all-trans-retinoic acid (GI-GPx upregulation, reduction of HCV RNA and NS5a): alone or in combination with each other or with selenium or a selenium salt; for reduction of HCV load: replicon cells
Procedure: as §1, with “(Neo)(C). […]” for “(Neo)(C).”
(§3) Western blot analysis was performed using an NS5a antibody (FIG. 5). Expression of the transduced GI-GPx cDNA was monitored with a GI-GPx-specific antiserum (FIG. 6).
as §2
(§4) As a model system for HCV replication there were utilized three replicon cell lines provided by Prof. R. Bartenschlager (University of Heidelberg, Germany). Cultures were treated for various periods of time with all trans-retinoic acid (RA) for comparative purposes and the other agents selenium, selenium salts, Vitamin D3 and retinoids, like 9-cis-retinoic acid, C1-C10 alkyl esters of 9-cis-retinoic acid, C1-C10 alkyl amides of 9-cis-retinoic acid, N-(4-hydroxyphenyl) retinamide (4-HPR), 6-[3-(1-adamantyl)-4-hydroxyphenyl]-2-naphthalene carboxylic acid (CD437; AHPN) (obtained from Sigma), paraquat, 4-[E-2-(5,6,7,8-tetrahydro-5,5,8,8-tetramethyl-2-naphthalenyl)-1-propenyl]benzoic acid, 4-hydroxyphenylretinamide, and 4-[(5,6,7,8-tetrahydro-5,5,8,8-tetramethyl-2-naphtalenyl)carboxamido]benzoic acid.
(§5) Levels of GI-GPx protein expression were measured by Western Blotting using antibodies provided by Prof. Brigelius-Flohe (University of Potsdam, Germany), and RNA levels were measured by Northern blotting using GI-GPx-specific oligonucleotides as probes. Levels of HCV RNA were investigated by Northern Blotting using a DNA oligonucleotide complementary to the neomycin phosphotransferase gene as probe. Concentration of the viral protein NS5a was determined by Western Blotting with an NS5a-specific antibody (Biogenesis, UK).

GI-GPx [3] = assay: GI-GPx RNA and protein expression in HuH7 replicon cell lines; format: cell-based, human
Procedure: as §1, §3
The x-ray films were densitometrically scanned and the NS5a values compared with untransfected control cells (set as 100%) (FIG. 5) and the GI-GPx values compared with the maximum expression of the transduced GI-GPx cDNA obtained seven days post infection (set as 100%) (FIG. 6).
as §2, §4, §5

HuH 11-7 replicon cells = assay: Paraquat sensitivity, Alamar Blue viability assay; format: cell-based, human; details: HuH 11-7, 24 hours, three independent experiments
Procedure: (§6) Cells were plated in 96-well microtiter plates (5×10^3 cells/0.35 cm^2) and after three days treated for 24 hours with the concentration of paraquat depicted. Cell viability was measured utilizing an Alamar-Blue assay and is reflected by relative fluorescence units (RFU) at 405 nm.
(§7) Replicon cell lines and control cells were incubated for 24 hours with various concentrations of paraquat (methylviologen), and viability of the cultures was measured using the Alamar Blue assay.
(§8) For quantification of the degree of cell death in cell culture we employed the viability assay based on the reduction of tetrazolium salt to formazan by mitochondrial dehydrogenase activity. The assay was performed in 96-well microtiter plates (Greiner, Frickenhausen, Germany) as described previously (T. Herget et al., 1998, J. Neurochem., 70: 47-58) but Alamar Blue (Roche Molecular Biochemicals, Germany) was used instead of MTT. The light absorbance at 405 nm of the medium including all factors but without cells was determined and subtracted from the absorption readings with cells. Eight wells per sample point were analyzed and each experiment was repeated independently at least three times.

HuH 5-15 replicon cells = assay: Paraquat sensitivity, Alamar Blue viability assay; format: cell-based, human; details: HuH 5-15, 24 hours, three independent experiments
Procedure: as §6, §7, §8

HuH pcDNA3 control cells = assay: Paraquat sensitivity, Alamar Blue viability assay; format: cell-based, human; details: 24 hours, three independent experiments
Procedure: as §6, §7, §8

HuH 9-13 replicon cells = assay: Paraquat sensitivity, Alamar Blue viability assay; format: cell-based, human; details: HuH 9-13, 24 hours, three independent experiments
Procedure: as §6, §7, §8

replicon cells = assay: Cytotoxic effects in replicon cells; format: cell-based, human
Source text: As a model system for HCV replication there were utilized three replicon cell lines provided by Prof. R. Bartenschlager (University of Heidelberg, Germany).

[4] = test system: PKR (double strand RNA-dependent protein kinase); assay: Transcription of PKR in replicon cells; format: cell-based, human
Procedure: as §1
This fact implies that downregulation of HCV was promoted firstly by activation of the GI-GPx gene on transcriptional level by retinoic acid and secondly by the synthesis of selenoprotein(s) for which sodium selenite was needed. Indeed it could be shown that all-trans-retinoic acid-induced downregulation of HCV is independent of the innate immune response induced by interferon.

Row | Compound | effect like all-trans-retinoic acid (GI-GPx upregulation, reduction of HCV RNA and NS5a) [2] | reduction of HCV load [2] | further results
1 | IFN-α |  |  | GI-GPx expression (GI-GPx [1]): no effect; HCV-replicon RNA and HCV protein NS5a level ([2]; 1000 U/ml, two and four days): time- and dose-dependent down-regulation; GI-GPx expression (GI-GPx [3]; replicon cells, within four days of interferon treatment, 1000 U/ml): up-regulated
2 | CC1=C(/C=C/C(C)=C/C=C/C(C)=C/CO)C(C)(C)CCC1 [retinol] | showed a similar effect | capable of reducing HCV load | 
3 | CC1=C(/C=C/C(C)=C\C=C\C(C)=C\C(=O)O)C(C)(C)CCC1 [9-cis retinoic acid] | showed a similar effect | capable of reducing HCV load | 
4 | CC1=C(/C=C/C(C)=C/C=C/C(C)=C/C(=O)Nc2ccc(O)cc2)C(C)(C)CCC1 [4-HPR, N-(4-hydroxyphenyl) retinamide] | showed a similar effect | capable of reducing HCV load | 
5 | C[n+]1ccc(-c2cc[n+](C)cc2)cc1 [paraquat] | showed a similar effect | capable of reducing HCV load | LD50 for paraquat (HuH 11-7 replicon cells): 310 ± 65 µM; LD50 for paraquat (HuH 5-15 replicon cells): 270 ± 75 µM; LD50 for paraquat (HuH pcDNA3 control cells): 1250 ± 120 µM; LD50 for paraquat (HuH 9-13 replicon cells): 260 ± 50 µM
6 | O=[Se](O)O [sodium selenite] |  |  | severe cytotoxic effects (replicon cells; alone or both in combination): neither observed
7 | CC1=C(/C=C/C(C)=C/C=C/C(C)=C/C=O)C(C)(C)CCC1 [retinoic acid adlehyde] | showed a similar effect | capable of reducing HCV load | 
8 | CC1=C(/C=C/C(C)=C/C=C/C(C)=C\C(=O)O)C(C)(C)CCC1 [13-cis retinoic acid] | showed a similar effect | capable of reducing HCV load | 
9 | C/C(=C\c1ccc(C(=O)O)cc1)c1ccc2c(c1)C(C)(C)CCC2(C)C [4-[E-2-(5,6,7,8-tetrahydro-5,5,8,8-tetramethyl-2-naphthalenyl)-1-propenyl]benzoic acid] | showed a similar effect | capable of reducing HCV load | 
10 | CC1(C)CCC(C)(C)c2cc(C(=O)Nc3ccc(C(=O)O)cc3)ccc21 [4-[(5,6,7,8-tetrahydro-5,5,8,8-tetramethyl-2-naphthalenyl)carboxamido]benzoic acid] | showed a similar effect | capable of reducing HCV load | 
11 | CC1=C(/C=C/C(C)=C/C=C/C(C)=C/C(=O)O)C(C)(C)CCC1 [all-trans-retinoic acid] |  |  | toxic effects (replicon cells; six days, in the presence of selenium or a selenium salt): absence of toxic effects; induction of transcription of PKR [4]: did not induce; downregulation of subgenomic HCV RNA and viral protein NS5a ([2]; 1 μM, seven days, depending on the cell line): two- to five-fold; effect on HCV expression ([2]; 1 μM, three days): hardly any effect; reduction of HCV RNA and HCV NS5a protein ([2]; six days, in the presence of selenium or a selenium salt like sodium selenite): two-to five-fold; up-regulation of GI-GPx, RNA and protein level (GI-GPx [3]; 1 μM, seven days of incubation): three- to ten-fold; effect on GI-GPx expression (GI-GPx [3]; 1 μM, three days): hardly any effect; GI-GPx RNA and protein (GI-GPx [3]; six days): upregulation
12 | O=C(O)c1ccc2cc(-c3ccc(O)c(C45CC6CC(CC(C6)C4)C5)c3)ccc2c1 [CD437, 6-[3-(1-adamantyl)-4-hydroxyphenyl]-2-naphthalene carboxylic acid] | showed a similar effect | capable of reducing HCV load | 
13 | CCOC(=O)/C=C(C)/C=C/C=C(C)/C=C/c1c(C)cc(OC)c(C)c1C [etretinate] | showed a similar effect | capable of reducing HCV load | 
